Data on two compounds can be found in patent US6632977B2 (priority 1996, dated 2003).

Like-named read-outs stand apart in the source and are kept apart here.

One may read the Kd as the constant that tells how readily two partners part at equilibrium.

Assay [1] has as its system mixed lymphocyte reaction (MLR). The settings on record: in vitro; cited from earlier work.
In assay [2] the target is T1, δ receptor (Mus musculus, UniProt P32300). The settings on record: for Bmax: [3H]NTI, μ receptor gene line; for NTI Bmax: kappa receptor gene line.
T1 sequence (P32300 whole entry): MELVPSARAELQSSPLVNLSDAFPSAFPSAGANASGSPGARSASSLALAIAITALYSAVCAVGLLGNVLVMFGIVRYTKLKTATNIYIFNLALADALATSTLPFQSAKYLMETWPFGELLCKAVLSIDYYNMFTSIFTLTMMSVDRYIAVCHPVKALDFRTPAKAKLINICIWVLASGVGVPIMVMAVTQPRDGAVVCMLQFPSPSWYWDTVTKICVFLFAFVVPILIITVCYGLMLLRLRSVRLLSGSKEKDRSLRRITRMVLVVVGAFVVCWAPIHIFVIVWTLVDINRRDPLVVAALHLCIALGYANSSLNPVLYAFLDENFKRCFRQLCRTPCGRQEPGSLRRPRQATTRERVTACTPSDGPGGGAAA
A further assay concerns transplant rejection. The following applies: in vivo; cited from earlier work.
Assay [3] has as its target T1, δ receptor. The assay is described as follows: biochemical.
The test system of another assay is adenylate cyclase. The assay is described as follows: Adenylate cyclase activity in brain homogenates after morphine deficiency induced by naloxone. Format: in vivo, mice. Further details: Adenylate cyclase activity stimulated by forskolin: dose or concentration left out as unconfirmed. The following applies: for increase in adenylate cyclase activity in the striatum: naloxone after chronic morphine; for Adenylate cyclase activity stimulated by forskolin: FK; for Adenylate cyclase activity stimulated by forskolin / Adenylate cyclase activity, basal: chronic morphine then naloxone.

As to `Oc1ccc2c3c1O[C@H]1c4[nH]c5ccccc5c4C[C@@]4(O)[C@@H](C2)N(CC2CC2)CC[C@]314` [NTI, naltrindole], the “effect on the mixed lymphocyte reaction (MLR)” value in assay [1] was “suppressant effect”. The Bmax at δ receptor [2] (heterozygous +/−) is on record as 0.103; at δ receptor [2] (homozygous −/−), 0.124; at δ receptor [2] (wild +/+) it was 0.095. The “binding curves (Scatchard) compared between genotypes” value at δ receptor [2] (brains of +/+, +/− and −/− MOR mice) is given as “superimposable”. Besides, the “change in binding of the delta ligands” value at δ receptor [2] (kappa mutant animals with respect to wild animals) is given as “no change in the binding”. Moreover, the “NTI Bmax” value on δ receptor [2] (heterozygous +/−) was found to be 0.170 pmole/mg proteins; at δ receptor [2] (homozygous −/−) it was 0.190 pmole/mg proteins; on δ receptor [2] (wild +/+), 0.204 pmole/mg proteins. Also, the “effect on transplant rejection” value with transplant rejection is “prevents transplant rejection”. The Kd at δ receptor [3] (Kd, [3H]NTI, μ receptor gene line, heterozygous +/−) came out at 75 pM; at δ receptor [3] (Kd, [3H]NTI, μ receptor gene line, homozygous −/−), 82 pM; on δ receptor [3] (Kd, [3H]NTI, μ receptor gene line, wild +/+), 68 pM; on δ receptor [3] (NTI Kd, kappa receptor gene line, heterozygous +/−), 109 pM; on δ receptor [3] (NTI Kd, kappa receptor gene line, homozygous −/−), 114 pM; at δ receptor [3] (NTI Kd, kappa receptor gene line, wild +/+), 108 pM.

Take `CN1CC[C@]23c4c5ccc(O)c4O[C@H]2[C@@H](O)C=C[C@H]3[C@H]1C5` [morphine]: the “increase in adenylate cyclase activity in the striatum” value in the assay on adenylate cyclase (animals deficient in the μ receptor) is “absent”; with adenylate cyclase (wild mice) it was 30%. Further, the “Adenylate cyclase activity stimulated by forskolin” value in the assay with adenylate cyclase (cerebellum, μ +/+) is recorded as 966 ± 55 pmoles of cyclic AMP formed/minute/mg of protein; in the assay with adenylate cyclase (cerebellum, μ −/−), 979 ± 73 pmoles of cyclic AMP formed/minute/mg of protein; with adenylate cyclase (striatum, μ +/+), 1473 ± 43 pmoles of cyclic AMP formed/minute/mg of protein; with adenylate cyclase (striatum, μ −/−), 1158 ± 108 pmoles of cyclic AMP formed/minute/mg of protein. For the same compound, the “Adenylate cyclase activity, basal” value with adenylate cyclase (cerebellum, μ +/+) was 209 ± 30 pmoles of cyclic AMP formed/minute/mg of protein; in the assay with adenylate cyclase (cerebellum, μ −/−), 213 ± 42 pmoles of cyclic AMP formed/minute/mg of protein; with adenylate cyclase (striatum, μ +/+), 401 ± 22 pmoles of cyclic AMP formed/minute/mg of protein; in the assay with adenylate cyclase (striatum, μ −/−) it was 304 ± 28 pmoles of cyclic AMP formed/minute/mg of protein.
